From PubChem BioAssay AID1963976 (Molecular Pharmacology Branch, DTP, NCI, 2024)
Several values for one entry are separate records, joined by “and”; a condition that tells them apart may be missing. Equal entries are not always repeated.

Test system: 435261-313-R-J1-PDC tumor spheroid viability
Experiment: Anticancer human tumor 435261-313-R-J1-PDC patient-derived colon adenocarcinoma cell line growth inhibition [PI3K]
Details: spheroids with HUVEC and MSC; for viability, T/C: stronger effect = lower value; active = viability on the fitted dose curve at most 10% of control; inactive = the rest
Summary of the method: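 Viability of mixed-cell spheroids was determined after exposure to pairwise combinations, one partner being inavolisib, alpelisib, duvelisib or copanlisib. Highest tested concentration matched clinical Cmax where known and 10 microM where not, descending in half-log steps.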

[1] = curve of first compound, second compound 0.0316 µM
[2] = curve of first compound, second compound 0.1 µM
[3] = curve of first compound, second compound 0.316 µM
[4] = curve of first compound, second compound 1 µM
[5] = second compound 0.0316 µM, first compound 0.0316 µM
[6] = second compound 0.0316 µM, first compound 0.1 µM
[7] = second compound 0.1 µM, first compound 0.0316 µM
[8] = second compound 0.1 µM, first compound 0.1 µM
[9] = second compound 0.316 µM, first compound 0.0316 µM
[10] = second compound 0.316 µM, first compound 0.1 µM
[11] = second compound 1 µM, first compound 0.0316 µM
[12] = second compound 1 µM, first compound 0.1 µM
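Note: spheroids exposed to compounds for 7 days.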

C#Cc1c(F)ccc2cc(O)cc(-c3ncc4c(N5CC6CCC(C5)N6)nc(OCC56CCCN5CC(F)C6)nc4c3F)c12 (configuration not stated) + CC(Nc1ccc2c(c1)OCCn1cc(N3C(=O)OCC3C(F)F)nc1-2)C(N)=O
2.04 µM: IC50 (curve of first compound, second compound 0.01 µM)
active: viability, T/C (second compound 1 µM, first compound 3.16 µM) 7.99% | viability, T/C (second compound 1 µM, first compound 10 µM) 3.34%
3.73 µM: IC50 (curve of first compound, second compound 0.00316 µM)
0.0859 µM: IC50 [2]
1.92 µM: IC50 [1]
< 0.0316 µM: IC50 [3] | IC50 [4]
inactive: viability, T/C (second compound 0.00316 µM, first compound 0.0316 µM) 73.9% | viability, T/C (second compound 0.00316 µM, first compound 0.1 µM) 91.2% | viability, T/C (second compound 0.00316 µM, first compound 0.316 µM) 85.6% | viability, T/C (second compound 0.00316 µM, first compound 1 µM) 98.2% | viability, T/C (second compound 0.00316 µM, first compound 3.16 µM) 54.1% | viability, T/C (second compound 0.00316 µM, first compound 10 µM) 25.7% | viability, T/C (second compound 0.01 µM, first compound 0.0316 µM) 74.4% | viability, T/C (second compound 0.01 µM, first compound 0.1 µM) 93.9% | viability, T/C (second compound 0.01 µM, first compound 0.316 µM) 90.7% | viability, T/C (second compound 0.01 µM, first compound 1 µM) 65.8% | viability, T/C (second compound 0.01 µM, first compound 3.16 µM) 41.1% | viability, T/C (second compound 0.01 µM, first compound 10 µM) 28.8% | viability, T/C [5] 54.5% | viability, T/C [6] 65.7% | viability, T/C (second compound 0.0316 µM, first compound 0.316 µM) 66.2% | viability, T/C (second compound 0.0316 µM, first compound 1 µM) 76.5% | viability, T/C (second compound 0.0316 µM, first compound 3.16 µM) 38.1% | viability, T/C (second compound 0.0316 µM, first compound 10 µM) 13.8% | viability, T/C [7] 43.9% | viability, T/C [8] 57% | viability, T/C (second compound 0.1 µM, first compound 0.316 µM) 47.4% | viability, T/C (second compound 0.1 µM, first compound 1 µM) 33.2% | viability, T/C (second compound 0.1 µM, first compound 3.16 µM) 22.6% | viability, T/C (second compound 0.1 µM, first compound 10 µM) 12.3% | viability, T/C [9] 21.7% | viability, T/C [10] 21.6% | viability, T/C (second compound 0.316 µM, first compound 0.316 µM) 26.5% | viability, T/C (second compound 0.316 µM, first compound 1 µM) 17.5% | viability, T/C (second compound 0.316 µM, first compound 3.16 µM) 15.1% | viability, T/C (second compound 0.316 µM, first compound 10 µM) 7.18% | viability, T/C [11] 18.9% | viability, T/C [12] 14.5% | viability, T/C (second compound 1 µM, first compound 0.316 µM) 13.1% | viability, T/C (second compound 1 µM, first compound 1 µM) 12%

Cn1ncnc1[C@H]1c2n[nH]c(=O)c3cc(F)cc(c23)N[C@@H]1c1ccc(F)cc1
inactive: viability, T/C (compound 0.00316 µM) 93.3% and 79.8% (2×) and 89.1% | viability, T/C (compound 0.1 µM) 62.6% [middle of 4 runs]
> 0.1 µM: IC50 (curve of compound)

CC(=O)c1c(C)c2cnc(Nc3ccc(N4CCNCC4)cn3)nc2n(C2CCCC2)c1=O + CC(Nc1ncnc2nc[nH]c12)c1cc2cccc(Cl)c2c(=O)n1-c1ccccc1
inactive: viability, T/C (second compound 0.0316 µM, first compound 0.000316 µM) 101% | viability, T/C (second compound 0.0316 µM, first compound 0.001 µM) 125% | viability, T/C (second compound 0.0316 µM, first compound 0.00316 µM) 74.8% | viability, T/C (second compound 0.0316 µM, first compound 0.01 µM) 94% | viability, T/C [5] 107% | viability, T/C [6] 84.1% | viability, T/C (second compound 0.1 µM, first compound 0.000316 µM) 77.4% | viability, T/C (second compound 0.1 µM, first compound 0.001 µM) 84% | viability, T/C (second compound 0.1 µM, first compound 0.00316 µM) 94.5% | viability, T/C (second compound 0.1 µM, first compound 0.01 µM) 101% | viability, T/C [7] 106% | viability, T/C [8] 64.9% | viability, T/C (second compound 0.316 µM, first compound 0.000316 µM) 105% | viability, T/C (second compound 0.316 µM, first compound 0.001 µM) 72.7% | viability, T/C (second compound 0.316 µM, first compound 0.00316 µM) 101% | viability, T/C (second compound 0.316 µM, first compound 0.01 µM) 90.1% | viability, T/C [9] 119% | viability, T/C [10] 69% | viability, T/C (second compound 1 µM, first compound 0.000316 µM) 81.7% | viability, T/C (second compound 1 µM, first compound 0.001 µM) 57.1% | viability, T/C (second compound 1 µM, first compound 0.00316 µM) 56.6% | viability, T/C (second compound 1 µM, first compound 0.01 µM) 92.3% | viability, T/C [11] 86.6% | viability, T/C [12] 62% | viability, T/C (second compound 3.16 µM, first compound 0.000316 µM) 52.9% | viability, T/C (second compound 3.16 µM, first compound 0.001 µM) 79% | viability, T/C (second compound 3.16 µM, first compound 0.00316 µM) 40.8% | viability, T/C (second compound 3.16 µM, first compound 0.01 µM) 63.1% | viability, T/C (second compound 3.16 µM, first compound 0.0316 µM) 63.3% | viability, T/C (second compound 3.16 µM, first compound 0.1 µM) 41.3% | viability, T/C (second compound 10 µM, first compound 0.000316 µM) 44.5% | viability, T/C (second compound 10 µM, first compound 0.001 µM) 54% | viability, T/C (second compound 10 µM, first compound 0.00316 µM) 48.2% | viability, T/C (second compound 10 µM, first compound 0.01 µM) 56.1% | viability, T/C (second compound 10 µM, first compound 0.0316 µM) 54.6% | viability, T/C (second compound 10 µM, first compound 0.1 µM) 32.2%
0.0345 µM: IC50 (curve of first compound, second compound 10 µM)
> 0.1 µM: IC50 [1] | IC50 [2] | IC50 [3] | IC50 [4] | IC50 (curve of first compound, second compound 3.16 µM)
